We go through one molecule from article PMC3566858 (Beilstein Journal of Organic Chemistry, 2013).

In data set [1] the target is T1, CYP3A4 (Homo sapiens, UniProt P08684). The arrangement: method as in PMID 11038163. Particulars: cited from earlier work.
Data set [2] has as its target T2, CYP2C19 (Homo sapiens, UniProt P33261). The data set is described as follows: Mammalian CYP inhibition panel, 2C19. The class given is in vitro ADME.
Data set [3] has as its target CYP2C9 (Homo sapiens, UniProt P11712). Put plainly: Mammalian CYP inhibition panel, 2C9. The class given is in vitro ADME.
The target in data set [4] is T3, ≈35 kDa host-cell protein (cathepsin B) (Mus musculus, UniProt P10605).
T3 construct: endogenous in cells; host or cells: C2C12 mouse myoblasts
The data set is described as follows: Competitive labeling of host cell (C2C12) proteins with probe 9. The class given is cell-based. The conditions noted are these: C2C12 cells, pretreatment with 10 μM for one hour. The protocol: The discovery of a potential mammalian off-target of probe 9 (and presumably also of 1) was of considerable interest, so we explored this finding further. To determine if this protein was also a target of 1 and 4, we conducted competition experiments in C2C12 cells. […]
Cellular labeling assay and “click” chemistry: C2C12 cells (1.5 × 10^6 cells) were pre-treated with competitor compounds in culture media (1 mL, DMEM with 10% FBS) for 1 hour at 37 °C.
Then additional competitor compound and 9 (2 µM) were added in culture media (1 mL), and the cells were incubated for an additional hour. The cells were then pelleted, washed with phosphate-buffered saline pH 7.4 (2 × 1 mL), and lysed with 1% SDS in phosphate-buffered saline (400 µL). The denatured lysates were sonicated to reduce viscosity, centrifuged to give pellets of the insoluble material, and normalized for total protein content. The normalized lysates (22 µL, 3 mg/mL) were mixed with TAMRA azide 10 (0.5 µL, 5 mM), TCEP (0.5 µL, 50 mM, pH ~7.0), TBTA ligand in 1:4 DMSO/t-butyl alcohol (1.5 µL, 1 mM), and CuSO4 (0.5 µL, 50 mM).
Reactions were incubated at room temperature for one hour and then resolved by SDS-PAGE.
The resulting gel was scanned for fluorescence (Typhoon Imaging System, Molecular Dynamics) and coomassie stained. […]

Data set [5] deals with T1, CYP3A4. Put plainly: CYP reversibility study (pre-incubation with or without NADPH), 3A4. Type of data set: in vitro ADME. The procedure:
Given the similar IC50 values for 1 and 4 against CYP3A4, we were curious to determine whether 4 is an irreversible inhibitor of this enzyme, as is the case for 1 [30].
(§1) CYP Inhibition and reversibility studies
(§2) Mammalian CYP inhibition values and reversibility studies were conducted by WuXi AppTech
(§3) (Tianjin, China 300457) according to standard protocols. […]

Data set [6] concerns the target TcCYP51 (Trypanosoma cruzi, UniProt Q7Z1V1). The data set is described as follows: biochemical. Particulars: UV-vis binding assay; lower limit of KD ~5 nM; read-out: TcCYP51 activity in vitro KD.
The target in data set [7] is T1, CYP3A4. The data set is described as follows: Mammalian CYP inhibition panel, 3A4. The class given is in vitro ADME.
Data set [8] concerns the target cruzain (Trypanosoma cruzi, UniProt P25779). Put plainly: biochemical.
The test system of data set [9] is T. cruzi parasites in J774 macrophage host cells. The data set is described as follows: Minimum trypanocidal concentration (MTC) assay. The class given is cell-based, Trypanosoma cruzi. The conditions noted are these: clears J774 host cells of parasites at day 40, following 28 days of treatment.
Data set [10] deals with T4, CYP1A2 (Homo sapiens, UniProt P05177).
T4 sequence (P05177 1-516): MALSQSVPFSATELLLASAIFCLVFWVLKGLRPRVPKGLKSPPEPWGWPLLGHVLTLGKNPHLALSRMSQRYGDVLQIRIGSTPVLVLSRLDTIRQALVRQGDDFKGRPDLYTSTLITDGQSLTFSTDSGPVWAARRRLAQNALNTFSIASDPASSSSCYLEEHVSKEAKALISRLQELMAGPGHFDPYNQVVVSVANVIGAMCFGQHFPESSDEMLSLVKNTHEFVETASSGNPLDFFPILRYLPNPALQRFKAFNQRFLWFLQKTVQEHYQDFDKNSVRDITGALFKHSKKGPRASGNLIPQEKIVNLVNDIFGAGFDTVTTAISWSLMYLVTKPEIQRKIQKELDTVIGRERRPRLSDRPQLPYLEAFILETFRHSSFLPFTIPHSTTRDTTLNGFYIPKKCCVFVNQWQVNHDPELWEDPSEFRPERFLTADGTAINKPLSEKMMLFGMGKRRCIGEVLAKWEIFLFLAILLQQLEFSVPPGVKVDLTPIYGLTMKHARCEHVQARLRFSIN
The data set is described as follows: Mammalian CYP inhibition panel, 1A2. The class given is in vitro ADME.

The test system of data set [11] is TcCYP51 (ergosterol biosynthesis) in intracellular T. cruzi parasites. The data set is described as follows: Ergosterol biosynthesis / sterol composition of intracellular T. cruzi by GC/MS. The arrangement: key to TcCYP51 cellular activity (Y/N): Y: Compound affects ergosterol biosynthesis at indicated concentration as determined by GC/MS analysis; cellular activity (Y/N, conc.). Type of data set: cell-based, Trypanosoma cruzi.

In data set [12] the test system is P-glycoprotein (P-gp). Particulars: stated as known, no reference given; cited from earlier work.
Data set [13] concerns the target CYP2D6 (Homo sapiens, UniProt P10635). Put plainly: Mammalian CYP inhibition panel, 2D6. Type of data set: in vitro ADME.
Data set [14] relates to T. cruzi parasites in C2C12 host cells. Put plainly: High-content imaging-based screening (HCS) assay. Particulars: Trypanosoma cruzi; reduces parasite load in C2C12 cells by 90% relative to untreated controls; read-out: T. cruzi growth inhibition HCS EC90. Type of data set: cell-based.
In data set [15] the target is T2, CYP2C19. Put plainly: CYP reversibility study (pre-incubation with or without NADPH), 2C19. The class given is in vitro ADME. The procedure: as §1, §2, §3

T1 sequence (P08684 whole entry): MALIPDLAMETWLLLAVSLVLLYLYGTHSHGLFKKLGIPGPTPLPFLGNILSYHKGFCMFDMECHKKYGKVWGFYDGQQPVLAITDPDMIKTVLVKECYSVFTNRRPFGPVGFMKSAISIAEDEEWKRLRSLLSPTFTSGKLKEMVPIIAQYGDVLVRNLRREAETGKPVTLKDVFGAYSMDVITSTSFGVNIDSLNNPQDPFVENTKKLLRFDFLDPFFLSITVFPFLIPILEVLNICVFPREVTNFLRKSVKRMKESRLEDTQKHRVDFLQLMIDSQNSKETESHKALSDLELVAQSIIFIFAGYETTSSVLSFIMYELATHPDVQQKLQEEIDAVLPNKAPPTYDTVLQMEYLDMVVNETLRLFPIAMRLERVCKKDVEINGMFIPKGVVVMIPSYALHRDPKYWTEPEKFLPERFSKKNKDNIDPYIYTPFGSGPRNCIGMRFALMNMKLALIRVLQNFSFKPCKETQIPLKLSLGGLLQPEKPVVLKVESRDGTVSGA
T2 sequence (P33261 whole entry): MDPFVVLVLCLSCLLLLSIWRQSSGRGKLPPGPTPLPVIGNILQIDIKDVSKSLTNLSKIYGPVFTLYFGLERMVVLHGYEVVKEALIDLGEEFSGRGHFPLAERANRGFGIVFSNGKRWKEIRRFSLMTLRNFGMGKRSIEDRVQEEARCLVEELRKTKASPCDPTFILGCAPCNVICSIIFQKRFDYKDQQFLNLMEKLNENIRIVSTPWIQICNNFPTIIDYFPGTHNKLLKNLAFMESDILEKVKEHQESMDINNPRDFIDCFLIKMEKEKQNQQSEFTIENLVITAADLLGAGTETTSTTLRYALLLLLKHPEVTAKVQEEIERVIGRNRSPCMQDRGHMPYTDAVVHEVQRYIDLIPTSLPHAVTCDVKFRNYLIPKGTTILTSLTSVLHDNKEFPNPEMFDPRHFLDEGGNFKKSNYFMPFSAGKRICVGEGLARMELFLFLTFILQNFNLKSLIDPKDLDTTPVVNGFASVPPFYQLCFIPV
CYP2C9, sequence (P11712 whole entry): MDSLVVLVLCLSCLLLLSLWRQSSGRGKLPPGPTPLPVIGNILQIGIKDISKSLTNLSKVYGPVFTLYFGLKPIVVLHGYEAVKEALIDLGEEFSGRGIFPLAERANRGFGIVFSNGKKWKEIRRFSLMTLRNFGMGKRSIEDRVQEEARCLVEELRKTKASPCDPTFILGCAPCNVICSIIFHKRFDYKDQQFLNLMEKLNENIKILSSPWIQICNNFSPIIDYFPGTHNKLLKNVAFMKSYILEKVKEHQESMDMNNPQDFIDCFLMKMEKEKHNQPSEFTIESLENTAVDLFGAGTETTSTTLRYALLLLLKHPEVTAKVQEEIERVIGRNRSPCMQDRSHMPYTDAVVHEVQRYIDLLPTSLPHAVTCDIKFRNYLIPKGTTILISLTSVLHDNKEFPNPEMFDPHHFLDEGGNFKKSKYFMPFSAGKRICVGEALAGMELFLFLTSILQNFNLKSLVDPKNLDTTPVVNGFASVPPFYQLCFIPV
TcCYP51, sequence (Q7Z1V1 whole entry): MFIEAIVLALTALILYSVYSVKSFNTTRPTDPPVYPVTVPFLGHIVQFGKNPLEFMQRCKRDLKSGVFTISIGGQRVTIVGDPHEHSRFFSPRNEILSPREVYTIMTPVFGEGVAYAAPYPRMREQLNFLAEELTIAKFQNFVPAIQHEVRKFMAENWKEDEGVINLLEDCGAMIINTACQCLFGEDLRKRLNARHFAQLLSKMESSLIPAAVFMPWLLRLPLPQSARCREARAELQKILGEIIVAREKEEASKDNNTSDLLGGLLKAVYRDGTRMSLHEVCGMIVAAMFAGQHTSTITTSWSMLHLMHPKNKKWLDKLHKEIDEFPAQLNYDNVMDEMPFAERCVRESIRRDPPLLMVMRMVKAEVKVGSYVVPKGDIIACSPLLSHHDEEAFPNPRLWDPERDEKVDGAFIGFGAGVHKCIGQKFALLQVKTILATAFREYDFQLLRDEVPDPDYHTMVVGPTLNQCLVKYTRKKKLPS
cruzain, sequence (P25779 123-337 limits assumed): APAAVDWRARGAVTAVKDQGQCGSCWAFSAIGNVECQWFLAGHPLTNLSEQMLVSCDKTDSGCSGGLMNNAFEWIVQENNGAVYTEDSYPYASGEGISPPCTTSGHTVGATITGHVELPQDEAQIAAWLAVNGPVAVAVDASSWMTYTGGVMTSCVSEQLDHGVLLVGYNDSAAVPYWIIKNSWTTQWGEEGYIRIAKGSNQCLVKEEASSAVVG
CYP2D6, sequence (P10635 whole entry): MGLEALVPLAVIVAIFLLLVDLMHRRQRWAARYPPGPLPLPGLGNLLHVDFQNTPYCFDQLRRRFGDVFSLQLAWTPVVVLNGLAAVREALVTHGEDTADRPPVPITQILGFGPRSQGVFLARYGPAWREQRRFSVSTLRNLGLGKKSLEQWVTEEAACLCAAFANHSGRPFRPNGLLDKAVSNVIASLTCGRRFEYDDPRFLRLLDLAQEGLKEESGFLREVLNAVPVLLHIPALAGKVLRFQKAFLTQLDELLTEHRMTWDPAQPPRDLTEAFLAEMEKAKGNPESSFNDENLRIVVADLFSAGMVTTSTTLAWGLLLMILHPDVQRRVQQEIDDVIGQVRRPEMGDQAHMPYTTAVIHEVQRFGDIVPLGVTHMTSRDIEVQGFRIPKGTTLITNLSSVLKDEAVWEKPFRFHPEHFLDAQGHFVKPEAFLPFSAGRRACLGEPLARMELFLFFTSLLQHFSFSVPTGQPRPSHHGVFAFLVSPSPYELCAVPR
T3 sequence (P10605 80-333 limits assumed): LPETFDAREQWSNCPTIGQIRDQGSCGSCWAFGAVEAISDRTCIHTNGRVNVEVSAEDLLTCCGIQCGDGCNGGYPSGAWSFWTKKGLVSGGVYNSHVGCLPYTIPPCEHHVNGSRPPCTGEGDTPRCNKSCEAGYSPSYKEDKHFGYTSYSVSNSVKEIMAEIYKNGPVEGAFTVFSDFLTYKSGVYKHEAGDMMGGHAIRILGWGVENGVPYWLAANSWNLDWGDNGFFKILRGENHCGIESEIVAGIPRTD

Consider `CN1CCN(C(=O)N[C@@H](Cc2ccccc2)C(=O)N[C@H](/C=C/S(=O)(=O)c2ccccc2)CCc2ccccc2)CC1` [Compound 1, reference compound], for which, in data set [1], the “type of CYP3A4 inhibition” value was “mechanism-based (irreversible) inhibitor of CYP3A4”. In addition, the half-inhibitory concentration (IC50) was 7.6 µM in data set [2]; 32 µM in data set [3]; 0.0059 µM in data set [5] (pre-incubation with NADPH); 1.08 µM in data set [5] (pre-incubation without NADPH); 1.7 µM in [7]; 24 µM in [10]. In addition, the values for the IC50 in data set [13], in [15] (pre-incubation with NADPH) and in [15] (pre-incubation without NADPH) were 26 µM, 5.54 µM and 8.22 µM, respectively. Moreover, in data set [4], the “competition for labeling of the ≈35 kDa band by probe 9” value was “successfully blocked labeling”. Moreover, in data set [5] (NADPH-dependent shift of IC50), the “mechanism of CYP3A4 inhibition” value is listed as “irreversible inhibition”. Besides, in data set [6], the Kd is over 2 µM. Also, the second-order inactivation constant (kinact/KI) in data set [8] came out at 118000 M⁻¹ s⁻¹. Besides, the “T. cruzi growth inhibition MTC” value in data set [9] amounted to 8 µM. Moreover, the “TcCYP51 cellular activity (Y/N)” value in data set [11] (affects ergosterol biosynthesis at 1.6 μM) is recorded as “N (1.6 μM)”. Moreover, the “effect on sterol (lipid) composition of intracellular T. cruzi” value in [11] (concentrations below MTC) is “little effect on sterol composition”. The “P-glycoprotein (P-gp) substrate” value in [12] was “substrate of the drug transporter P-glycoprotein (P-gp)”. Besides, the 90% effect concentration (EC90) in [14] was 0.1 µM. The “mechanism of CYP2C19 inhibition” value in [15] (NADPH-dependent shift of IC50) is “reversible inhibitors”.
